Measured values published in patent US12441725B2, “ISO-citrate dehydrogenase (IDH) inhibitor” (ZHEJIANG METON PHARMACEUTICAL CO., LTD, priority 2019, dated 2025).

Tests used:
[1] = molecular target: T1, IDH1 R132H (Homo sapiens, UniProt O75874, R132H); experiment: Biochemical assay for IDH inhibition (NADPH fluorescence), mutant IDH1 R132H; conditions: 50 nM IDH1-R132H, 1 hour pre-incubation, in triplet
T1 construct: 6xHis
Method in brief: (§1)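 Mutant enzyme (25 nM R132C or 50 nM R132H) was preincubated 1 h at room temperature with compound in pH 7.5 Tris buffer containing 1.33 mM α-KG, and the reaction was then started with NADPH (80 μM solution). NADPH consumption was followed by fluorescence (Ex 340/Em 460 nm) for 15 min. IC50 was derived from background-corrected linear rates relative to vehicle, run in triplicate.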

[2] = molecular target: T2, IDH1 R132C (Homo sapiens, UniProt O75874, R132C); experiment: Biochemical assay for IDH inhibition (NADPH fluorescence), mutant IDH1 R132C; conditions: 25 nM IDH1-R132C, 1 hour pre-incubation, in triplet
T2 construct: 6xHis
T2 sequence (O75874 whole entry R132C): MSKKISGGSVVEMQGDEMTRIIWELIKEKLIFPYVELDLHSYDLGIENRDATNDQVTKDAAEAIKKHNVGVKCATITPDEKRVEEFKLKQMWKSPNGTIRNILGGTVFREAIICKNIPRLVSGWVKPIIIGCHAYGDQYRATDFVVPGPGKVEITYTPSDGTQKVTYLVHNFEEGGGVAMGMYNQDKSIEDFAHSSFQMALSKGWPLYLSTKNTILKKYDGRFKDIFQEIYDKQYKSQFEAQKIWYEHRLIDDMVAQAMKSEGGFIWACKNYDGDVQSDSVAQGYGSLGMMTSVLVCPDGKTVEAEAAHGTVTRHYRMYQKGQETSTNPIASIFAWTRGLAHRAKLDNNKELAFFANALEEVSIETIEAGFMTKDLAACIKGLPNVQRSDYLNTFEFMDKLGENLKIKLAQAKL
Method in brief: as §1

[3] = molecular target: T3, IDH (endogenous IDH1 R132C) in HT1080 cell (Homo sapiens, UniProt O75874, R132C); experiment: Cell-based assay for IDH inhibition (decrease of D-2-HG) in HT1080 cells; conditions: human fibrosarcoma cell line HT1080, 16 hours treatment, D-2-HG by LC-MS, in triplet
T3 construct: which harbor endogenous heterozygous IDH1 R132C and R132H mutation respectively and accumulate D-2-HG
T3 sequence (O75874 2-414 R132C): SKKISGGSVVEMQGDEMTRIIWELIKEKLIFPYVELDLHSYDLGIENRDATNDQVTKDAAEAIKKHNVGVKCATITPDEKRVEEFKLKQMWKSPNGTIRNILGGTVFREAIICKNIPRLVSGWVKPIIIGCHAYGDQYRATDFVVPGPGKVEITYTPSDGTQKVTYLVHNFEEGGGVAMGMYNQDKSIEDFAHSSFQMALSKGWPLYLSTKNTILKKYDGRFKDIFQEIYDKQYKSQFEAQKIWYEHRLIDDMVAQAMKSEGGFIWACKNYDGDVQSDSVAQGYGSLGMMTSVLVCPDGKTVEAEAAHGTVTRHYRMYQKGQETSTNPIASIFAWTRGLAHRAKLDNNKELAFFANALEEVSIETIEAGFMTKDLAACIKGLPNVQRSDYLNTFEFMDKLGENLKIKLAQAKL
Method in brief: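 HT1080 cells with endogenous IDH1 R132C, grown in DMEM/10% FBS, treated with compound at several concentrations for 16 h. Metabolites extracted in cold 40% methanol/40% acetonitrile and D-2-HG measured by HILIC LC-MS/MS, normalized to glutamate. IC50 from D-2-HG relative to DMSO controls; run in triplicate.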

T1 sequence (O75874 whole entry R132H): as the sequence (O75874 whole entry R132C) above, with C132H counted along it

| SMILES | IC50 [1] [nM] | IC50 [2] [nM] | IC50 [3] [nM] |
| --- | --- | --- | --- |
| CCN1Cc2c(ccnc2N[C@@H](C)c2ccc(Oc3ccc(C(C)(C)C)nc3)c(F)c2)C1=O [Compound 7, (S)-4-((1-(4-((6-(tert-butyl)pyridin-3-yl)oxy)-3-fluorophenyl)ethyl)amino)-2-ethyl-2,3-dihydro-1H-pyrrolo[3,4-c]pyridin-1-one] | 100 to 500 | > 1000 | 500 to 1000 |
| CCN1Cc2c(ccnc2N[C@@H](C)c2cc(F)c(-c3ccc(OC)c(C(C)(C)C)n3)cc2F)C1=O [Compound 149, (S)-4-((1-(4-(6-(tert-butyl)-5-methoxypyridin-2-yl)-2,5-difluorophenyl)ethyl)amino)-2-ethyl-2,3-dihydro-1H-pyrrolo[3,4-c]pyridin-1-one] | < 100 | 100 to 500 | 100 to 500 |
| CCN1Cc2c(ccnc2N[C@@H](C)c2cc(F)c(O[C@H]3C[C@@H](C)CC(C)(C)C3)cc2F)C1=O [Compound 24, 4-(((S)-1-(2,5-difluoro-4-(((1S,5S)-3,3,5-trimethylcyclohexyl)oxy)phenyl)ethyl)amino)-2-ethyl-2,3-dihydro-1H-pyrrolo[3,4-c]pyridin-1-one] | < 100 | < 100 | < 100 |
| CCN1Cc2c(ccnc2N[C@@H](C)c2cc(F)c(-c3cc(C(F)(F)F)c(OC)cn3)cc2F)C1=O [Compound 165, (S)-4-((1-(2,5-difluoro-4-(5-methoxy-4-(trifluoromethyl)pyridin-2-yl)phenyl)ethyl)amino)-2-ethyl-2,3-dihydro-1H-pyrrolo[3,4-c]pyridin-1-one] | < 100 | < 100 | < 100 |
| CCN1Cc2c(ccnc2N[C@@H](C)c2ccc(-c3ccc(C(F)(F)F)nc3)c(F)c2)C1=O [Compound 75, (S)-2-ethyl-4-((1-(3-fluoro-4-(6-(trifluoromethyl)pyridin-3-yl)phenyl)ethyl)amino)-2,3-dihydro-1H-pyrrolo[3,4-c]pyridin-1-one] | > 1000 | > 1000 | > 1000 |
| CCN1Cc2c(ccnc2N[C@@H](C)c2ccc(OC3CCCCC3)c(F)c2)C1=O [Compound 14, (S)-4-((1-(4-(cyclohexyloxy)-3-fluorophenyl)ethyl)amino)-2-ethyl-2,3-dihydro-1H-pyrrolo[3,4-c]pyridin-1-one] | > 1000 | > 1000 | > 1000 |
| CCN1Cc2c(N[C@@H](C)c3ccc(OC4CCCC4)c(F)c3)ncc(F)c2C1=O [Compound 19, (S)-4-((1-(4-(cyclopentyloxy)-3-fluorophenyl)ethyl)amino)-2-ethyl-7-fluoro-2,3-dihydro-1H-pyrrolo[3,4-c]pyridin-1-one] | > 1000 | > 1000 | > 1000 |
| C[C@H](Nc1nccc2c1CN(CC(F)F)C2=O)c1ccc(-c2ccnc(C(C)(C)C)c2)c(F)c1 [Compound 37, (S)-4-((1-(4-(2-(tert-butyl)pyridin-4-yl)-3-fluorophenyl)ethyl)amino)-2-(2,2-difluoroethyl)-2,3-dihydro-1H-pyrrolo[3,4-c]pyridin-1-one] | 100 to 500 | 100 to 500 | 500 to 1000 |
| CCN1Cc2c(ccnc2N[C@@H](C)c2ccc(-c3ccc(C)cn3)c(F)c2)C1=O [Compound 82, (S)-2-ethyl-4-((1-(3-fluoro-4-(5-methylpyridin-2-yl)phenyl)ethyl)amino)-2,3-dihydro-1H-pyrrolo[3,4-c]pyridin-1-one] | > 1000 | > 1000 | > 1000 |
| CCN1Cc2c(ccnc2N[C@@H](C)c2ccc(Oc3cccc4c3ccn4C)c(F)c2)C1=O [Compound 2, (S)-2-ethyl-4-((1-(3-fluoro-4-((1-methyl-1H-indol-4-yl)oxy)phenyl)ethyl)amino)-2,3-dihydro-1H-pyrrolo[3,4-c]pyridin-1-one] | 100 to 500 | 100 to 500 | 500 to 1000 |
| CCN1Cc2c(ccnc2N[C@@H](C)c2cc(F)c(-c3cc(C(F)(F)F)cc(C)n3)cc2F)C1=O [Compound 122, (S)-4-((1-(2,5-difluoro-4-(6-methyl-4-(trifluoromethyl)pyridin-2-yl)phenyl)ethyl)amino)-2-ethyl-2,3-dihydro-1H-pyrrolo[3,4-c]pyridin-1-one] | < 100 | < 100 | 100 to 500 |
| CCN1Cc2c(ccnc2N[C@@H](C)c2cc(F)c(-c3cc(C(F)(F)F)ncc3OC)cc2F)C1=O [Compound 143, (S)-4-((1-(2,5-difluoro-4-(5-methoxy-2-(trifluoromethyl)pyridin-4-yl)phenyl)ethyl)amino)-2-ethyl-2,3-dihydro-1H-pyrrolo[3,4-c]pyridin-1-one] | < 100 | 100 to 500 | 100 to 500 |
| CCN1Cc2c(ccnc2N[C@@H](C)c2cc(F)c(-c3cncc(C(C)(C)C)c3)cc2F)C1=O [Compound 109, (S)-4-((1-(4-(5-(tert-butyl)pyridin-3-yl)-2,5-difluorophenyl)ethyl)amino)-2-ethyl-2,3-dihydro-1H-pyrrolo[3,4-c]pyridin-1-one] | < 100 | < 100 | < 100 |
| CCN1Cc2c(ccnc2N[C@@H](C)c2ccc(-c3ccnc(C4(O)CCC4)c3)c(F)c2)C1=O [Compound 78, (S)-2-ethyl-4-((1-(3-fluoro-4-(2-(1-hydroxycyclobutyl)pyridin-4-yl)phenyl)ethyl)amino)-2,3-dihydro-1H-pyrrolo[3,4-c]pyridin-1-one] | > 1000 | > 1000 | 500 to 1000 |
| CCN1Cc2c(ccnc2N[C@@H](C)c2ccc(OCC3CNC3)c(F)c2)C1=O [Compound 28, (S)-4-((1-(4-(azetidin-3-ylmethoxy)-3-fluorophenyl)ethyl)amino)-2-ethyl-2,3-dihydro-1H-pyrrolo[3,4-c]pyridin-1-one] | > 1000 | > 1000 | > 1000 |
| CCN1Cc2c(ccnc2N[C@@H](C)c2ncc(-c3cccc(C)c3F)cn2)C1=O [Compound 49, (S)-2-ethyl-4-((1-(5-(2-fluoro-3-methylphenyl)pyrimidin-2-yl)ethyl)amino)-2,3-dihydro-1H-pyrrolo[3,4-c]pyridin-1-one] | > 1000 | > 1000 | > 1000 |
| CCN1Cc2c(ccnc2N[C@@H](C)c2cc(F)c(-c3ccnc(C(C)(C)C)c3)cc2F)C1=O [Compound 87, (S)-4-((1-(4-(2-(tert-butyl)pyridin-4-yl)-2,5-difluorophenyl)ethyl)amino)-2-ethyl-2,3-dihydro-1H-pyrrolo[3,4-c]pyridin-1-one] | < 100 | < 100 | < 100 |
| CCN1Cc2c(ccnc2N[C@@H](C)c2ncc(-c3ccc(OC)cc3)cn2)C1=O [Compound 50, (S)-2-ethyl-4-((1-(5-(4-methoxyphenyl)pyrimidin-2-yl)ethyl)amino)-2,3-dihydro-1H-pyrrolo[3,4-c]pyridin-1-one] | > 1000 | > 1000 | > 1000 |
| CCN1Cc2c(ccnc2N[C@@H](C)c2ccc(Oc3ccnc(C(F)(F)F)c3)c(F)c2)C1=O [Compound 26, (S)-2-ethyl-4-((1-(3-fluoro-4-((2-(trifluoromethyl)pyridin-4-yl)oxy)phenyl)ethyl)amino)-2,3-dihydro-1H-pyrrolo[3,4-c]pyridin-1-one] | > 1000 | > 1000 | > 1000 |
| CCN1Cc2c(ccnc2N[C@@H](C)c2cc(F)c(Oc3ccc(C)cc3)cc2F)C1=O [Compound 20, (S)-4-((1-(2,5-difluoro-4-(p-tolyloxy)phenyl)ethyl)amino)-2-ethyl-2,3-dihydro-1H-pyrrolo[3,4-c]pyridin-1-one] | 100 to 500 | 100 to 500 | 500 to 1000 |
| CCN1Cc2c(ccnc2N[C@@H](C)c2cc(F)c(-c3ccnc(-c4ccnc(Cl)c4)c3)cc2F)C1=O [Compound 96, (S)-4-((1-(4-(2′-chloro-[2,4′-bipyridin]-4-yl)-2,5-difluorophenyl)ethyl)amino)-2-ethyl-2,3-dihydro-1H-pyrrolo[3,4-c]pyridin-1-one] | 100 to 500 | 500 to 1000 | 100 to 500 |
| CCN1Cc2c(ccnc2N[C@@H](C)c2cc(F)c(-c3ccnc(-c4ccn(C)c4)c3)cc2F)C1=O [Compound 92, (S)-4-((1-(2,5-difluoro-4-(2-(1-methyl-1H-pyrrol-3-yl)pyridin-4-yl)phenyl)ethyl)amino)-2-ethyl-2,3-dihydro-1H-pyrrolo[3,4-c]pyridin-1-one] | > 1000 | > 1000 | 100 to 500 |
| CCN1Cc2c(ccnc2N[C@@H](C)c2ccc(C(=O)NC3CCCCC3)c(Cl)c2)C1=O [Compound 62, (S)-2-chloro-N-cyclohexyl-4-(1-((2-ethyl-1-oxo-2,3-dihydro-1H-pyrrolo[3,4-c]pyridin-4-yl)amino)ethyl)benzamide] | > 1000 | > 1000 | > 1000 |
| CCN1Cc2c(ccnc2N[C@@H](C)c2ccc(-c3ccnc(C(C)(C)C)c3)cn2)C1=O [Compound 46, (S)-4-((1-(2′-(tert-butyl)-[3,4′-bipyridin]-6-yl)ethyl)amino)-2-ethyl-2,3-dihydro-1H-pyrrolo[3,4-c]pyridin-1-one] | > 1000 | > 1000 | > 1000 |
